# Activity calls are given as the source filed them. The rule behind the calls is not given here. Residues, ends and D or L forms follow the SMILES beside them.
# Key:
# [1] = target: HLA-DRB2 protein (Homo sapiens) (UniProt Q30155); assay: Inhibition of AMCA-labeled MBP (83 to 99) binding to HLA-DR2b […] in human HTC-Lan B cells at 10 fold excess after 48 hrs by fluorescence spectrophotometric method; format: cell-based
# [2] = target: HLA-DRB2 protein (Homo sapiens) (UniProt Q30155); assay: Inhibition of AMCA-labeled MBP (83 to 99) binding to HLA-DR2b […] in human HTC-Lan B cells at 20 fold excess after 48 hrs by fluorescence spectrophotometric method; format: cell-based
# Mus musculus [3] = assay: (§1) Immunomodulatory activity in C57BL/6 mouse subcutaneously immunized using 1:1 mixture of linear and cyclic MOG35 to 55 peptide in presence of complete Freunds adjuvant (CFA) followed by intraperitoneal pertussis toxin assessed as reduction in overall disease burden measured 46 days post disease induction; format: functional
# Mus musculus [4] = assay: as §1, with “16” for “46”; format: functional
# Mus musculus [5] = assay: (§2) Antiinflammatory activity in C57BL/6 mouse EAE model subcutaneously immunized using 1:1 mixture of linear and cyclic MOG35 to 55 peptide in presence of complete Freunds adjuvant (CFA) followed by intraperitoneal pertussis toxin assessed as reduction in size of inflammatory foci measured 46 days post disease induction by Bielschowsky silver impregnation staining method combined with haematoxylin staining-based assay; format: functional
# Mus musculus [6] = assay: as §2, with “16” for “46”; format: functional
# Mus musculus [7] = assay: as §2, with “Luxol fast blue (LFB)” for “Bielschowsky silver impregnation”, “counterstained” for “method combined”, “Nuclear fast Red” for “haematoxylin”; format: functional
# Mus musculus [8] = assay: as §2, with “16” for “46”, “Luxol fast blue (LFB)” for “Bielschowsky silver impregnation”, “counterstained” for “method combined”, “Nuclear fast Red” for “haematoxylin”; format: functional
# Mus musculus [9] = assay: (§3) Antiinflammatory activity in C57BL/6 mouse EAE model subcutaneously immunized using 1:1 mixture of linear and cyclic MOG35 to 55 peptide in presence of complete Freunds adjuvant (CFA) followed by intraperitoneal pertussis toxin assessed as protection against axonal injury by measuring normal cell population in spinal cord measured 16 days post disease induction (reference value: 4.3%); format: functional
# Mus musculus [10] = assay: as §3, with “as” for “as protection against”, “injury” for “injury by measuring normal cell population”, “15.2 to 42.4%)” for “4.3%)”; format: functional
# Mus musculus [11] = assay: as §3, with “as” for “as protection against”, “injury” for “injury by measuring normal cell population”, “46” for “16”, “0.7 to 36%)” for “4.3%)”; format: functional
# Mus musculus [12] = assay: as §3, with “loss” for “injury”; format: functional
# Mus musculus [13] = assay: as §3, with “as” for “as protection against”, “loss” for “injury by measuring normal cell population”, “13 to 30.4%)” for “4.3%)”; format: functional
# Mus musculus [14] = assay: as §2, with “demyelinating area” for “in size of inflammatory foci”, “Luxol fast blue (LFB)” for “Bielschowsky silver impregnation”, “counterstained” for “method combined”, “Nuclear fast Red” for “haematoxylin”; format: functional
# Mus musculus [15] = assay: as §2, with “demyelinating area” for “in size of inflammatory foci”, “16” for “46”, “Luxol fast blue (LFB)” for “Bielschowsky silver impregnation”, “counterstained” for “method combined”, “Nuclear fast Red” for “haematoxylin”; format: functional
# Mus musculus [16] = assay: as §2, with “demyelinating area” for “in size of inflammatory foci”; format: functional
# Mus musculus [17] = assay: as §2, with “demyelinating area” for “in size of inflammatory foci”, “16” for “46”; format: functional
# Mus musculus [18] = assay: as §3, with “46” for “16”, “32%)” for “4.3%)”; format: functional
# Mus musculus [19] = assay: as §3, with “loss” for “injury”, “46” for “16”, “27.3%)” for “4.3%)”; format: functional
# Mus musculus [20] = assay: as §3, with “as” for “as protection against”, “loss” for “injury by measuring normal cell population”, “46” for “16”, “4.7 to 26%)” for “4.3%)”; format: functional
# [21] = target: HLA-DRB2 protein (Homo sapiens) (UniProt Q30155); assay: Inhibition of AMCA-labeled MBP (83 to 99) binding to HLA-DR2b […] in human HTC-Lan B cells at 50 fold excess after 48 hrs by fluorescence spectrophotometric method; format: cell-based
# Sequence of HLA-DRB2 protein (Homo sapiens) (Q30155 as listed by the source): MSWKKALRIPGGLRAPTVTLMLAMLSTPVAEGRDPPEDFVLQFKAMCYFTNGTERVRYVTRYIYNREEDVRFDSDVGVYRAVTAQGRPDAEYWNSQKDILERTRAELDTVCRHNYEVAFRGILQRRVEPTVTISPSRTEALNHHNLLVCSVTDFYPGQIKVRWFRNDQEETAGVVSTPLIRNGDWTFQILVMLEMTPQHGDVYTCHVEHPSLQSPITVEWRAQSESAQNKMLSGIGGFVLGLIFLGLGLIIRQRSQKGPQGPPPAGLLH
smiles,measurement,setting,value
CC[C@H](C)[C@H](NC(=O)[C@H](CC(N)=O)NC(=O)[C@H](CCCCN)NC(=O)[C@H](Cc1ccccc1)NC(=O)[C@H](Cc1ccccc1)NC(=O)[C@H](Cc1cnc[nH]1)NC(=O)[C@@H](NC(=O)[C@@H](NC(=O)[C@@H]1CCCN1C(=O)[C@H](CC(N)=O)NC(=O)[C@@H](N)CCC(=O)O)C(C)C)C(C)C)C(=O)N[C@H](C(=O)N[C@H](C(=O)N1CCC[C@H]1C(=O)N[C@@H](CCCNC(=N)N)C(=O)N[C@H](C(=O)N1CCC[C@H]1C(=O)O)[C@@H](C)O)[C@@H](C)O)C(C)C,inhibition,[1],Active
CSCC[C@H](N)C(=O)N[C@@H](CCC(=O)O)C(=O)N[C@H](C(=O)NCC(=O)N[C@@H](Cc1c[nH]c2ccccc12)C(=O)N[C@@H](Cc1ccc(O)cc1)C(=O)N[C@@H](CCCNC(=N)N)C(=O)N[C@@H](CO)C(=O)N1CCC[C@H]1C(=O)N[C@@H](Cc1ccccc1)C(=O)N[C@@H](CO)C(=O)N[C@@H](CCCNC(=N)N)C(=O)N[C@H](C(=O)N[C@H](C(=O)N[C@@H](Cc1cnc[nH]1)C(=O)N[C@@H](CC(C)C)C(=O)N[C@@H](Cc1ccc(O)cc1)C(=O)N[C@@H](CCCNC(=N)N)C(=O)N[C@@H](CC(N)=O)C(=O)NCC(=O)N[C@@H](CCCCN)C(=O)O)C(C)C)C(C)C)C(C)C (H-MEVGWYRSPFSRVVHLYRNGK-OH),inhibition,[2],Active
CSCC[C@@H]1NC(=O)[C@H](CCCCN)NC(=O)CNC(=O)[C@H](CC(N)=O)NC(=O)[C@H](CCCNC(=N)N)NC(=O)[C@H](Cc2ccc(O)cc2)NC(=O)[C@H](CC(C)C)NC(=O)[C@H](Cc2cnc[nH]2)NC(=O)[C@H](C(C)C)NC(=O)[C@H](C(C)C)NC(=O)[C@H](CCCNC(=N)N)NC(=O)[C@H](CO)NC(=O)[C@H](Cc2ccccc2)NC(=O)[C@@H]2CCCN2C(=O)[C@H](CO)NC(=O)[C@H](CCCNC(=N)N)NC(=O)[C@H](Cc2ccc(O)cc2)NC(=O)[C@H](Cc2c[nH]c3ccccc23)NC(=O)CNC(=O)[C@H](C(C)C)NC(=O)[C@H](CCC(=O)O)NC1=O (cyclo(EVGWYRSPFSRVVHLYRNGKM)),Activity,Mus musculus [3],Active
same,Activity,Mus musculus [4],Active
same,Activity,Mus musculus [5],Active
same,Activity,Mus musculus [6],Active
same,Activity,Mus musculus [7],Active
same,Activity,Mus musculus [8],Active
same,Activity,Mus musculus [9],37.1%
same,Activity,Mus musculus [10],0.9 - 40.5%
same,Activity,Mus musculus [11],0.7 - 26.5%
same,Activity,Mus musculus [12],36.2%
same,Activity,Mus musculus [13],1.7 - 27.6%
same,Activity,Mus musculus [14],Active
same,Activity,Mus musculus [15],Active
same,Activity,Mus musculus [16],Active
same,Activity,Mus musculus [17],Active
same,Activity,Mus musculus [18],48.3%
same,Activity,Mus musculus [19],45.6%
same,Activity,Mus musculus [20],2 - 27.2%
same,inhibition,[21],Active

# — ChEMBL document CHEMBL4043095, “Cyclic MOG35-55 ameliorates clinical and neuropathological features of experimental autoimmune encephalomyelitis” (2017)
